The results in this text go back to paper PMC8248439, “Activation, Structure, Biosynthesis and Bioactivity of Glidobactin‐like Proteasome Inhibitors from Photorhabdus laumondii” (Chembiochem, 2021).

Molecules are shown by their SMILES. Like-named read-outs stand apart in the source and are kept apart here.

Assay type in all cases: biochemical
In experiment [1] the target is T1, yeast 20S proteasome (yCP) β5 subunit (ChTL) (Saccharomyces cerevisiae, UniProt P23724+P30656).
T1 construct: gene PRE2; yeast 20S proteasome core particle; with β6 subunit of yCP
T1 sequence (P30656 76-287): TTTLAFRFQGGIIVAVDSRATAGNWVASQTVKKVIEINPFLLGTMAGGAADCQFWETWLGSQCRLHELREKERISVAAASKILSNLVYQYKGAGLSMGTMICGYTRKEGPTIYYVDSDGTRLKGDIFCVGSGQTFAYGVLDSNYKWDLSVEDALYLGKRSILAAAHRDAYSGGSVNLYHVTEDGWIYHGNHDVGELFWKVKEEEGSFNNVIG
T1 sequence (P23724 20-241): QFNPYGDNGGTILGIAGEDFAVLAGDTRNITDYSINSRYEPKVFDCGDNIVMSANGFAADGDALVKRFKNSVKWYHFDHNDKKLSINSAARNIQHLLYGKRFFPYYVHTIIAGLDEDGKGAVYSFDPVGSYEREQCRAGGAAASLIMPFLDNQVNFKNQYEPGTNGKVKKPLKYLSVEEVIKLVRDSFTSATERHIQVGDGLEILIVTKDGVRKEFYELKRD
The experiment can be described thus: X-ray crystal structure ([…] Å) and ChTL activity inhibition assay of yCP.

Experiment [2] addresses T2, yeast 20S proteasome (yCP) β2 subunit (TL) (Saccharomyces cerevisiae, UniProt P25043).
T2 construct: gene PUP1; yeast 20S proteasome core particle
T2 sequence (P25043 30-261): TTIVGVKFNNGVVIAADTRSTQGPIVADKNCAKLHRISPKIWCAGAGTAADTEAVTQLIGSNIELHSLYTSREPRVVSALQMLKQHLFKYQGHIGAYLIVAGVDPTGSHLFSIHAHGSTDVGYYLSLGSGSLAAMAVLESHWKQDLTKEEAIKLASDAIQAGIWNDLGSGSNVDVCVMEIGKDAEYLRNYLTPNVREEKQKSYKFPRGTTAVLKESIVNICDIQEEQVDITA
The experiment can be described thus: X-ray crystal structure ([…] Å), mM soaking; weaker TL inhibition.

Experiment [3] deals with T2, yeast 20S proteasome (yCP) β2 subunit (TL). Described as above. The source holds these as a separate data set.
Experiment [4] deals with T1, yeast 20S proteasome (yCP) β5 subunit (ChTL). The experiment can be described thus: X-ray crystal structure ([…] Å) and ChTL activity inhibition assay of yCP. The source holds these as a separate data set.

Take `CC1C=CC(=O)NCCC(O)CC(NC(=O)C(NC(=O)C=CC=Cc2ccccc2)C(C)O)C(=O)N1` (stereo not shown) [compound 4]: the IC50 in experiment [1] was 73 nM; in experiment [2] it was over 200 nM.

On to `CC1C=CC(=O)NCCC(O)CC(NC(=O)C(NC(=O)C=Cc2ccccc2)C(C)O)C(=O)N1` (stereo not shown) [compound 5], for which the figures for the half-inhibitory concentration (IC50) in experiment [3] and in experiment [4] were over 200 nM and 107 nM, respectively.

What is called IC50 is the concentration that inhibits the measured activity by half. Lower therefore signals greater potency.
